Results: patent US10338077B2, “Methods for determining drug efficacy for treatment of cancer ration of cereblon associated proteins” (Celgene Corporation, priority 2015, dated 2019)

Columns and labels:
Format in all cases: cell-based, human
Hut102 = experiment: CellTiter cell proliferation assay, Hut102 (ATL cell line)
Text: (§1) ATL cell lines Hut102, ED40515, S1T, OATL4, and OATL9, HTLV-1 transformed cell lines MT-2, MT-4, and C8166, PTCL cell line Hut78, other T-cell Jurkat, MOLT4, HL60, and monocyte cell line K562 are laboratory stocks (Dr. Hidekatsu Iha, Oita University, and Prof. Kazuhiro Morishita, The University of Miyazaki). ATL cell lines ST1, KOB, KK1, and SO4 are gift from Dr. Hiroo Hasegawa, Nagasaki University). NCI-H929 and RPMI-8226 were purchased from American Type Culture Collection (ATCC: Manassas, Va.). Each cell line was maintained with RPMI-1640 culture media supplemented with 15% fetal bovine serum (FBS: Equitech-Bio Inc., Kerrville, Tex.), penicillin G (50 U/ml), and streptomycin (50 μg/ml). Antibiotics were purchased from Sigma-Aldrich Co. LLC. (St. Louis, Mo.).
(§2) Cells were plated in 24-well plates at 5×10^4 cells per 1.5 mL RPMI1640 and kept in 5% CO2 incubator for 24 hours (cell number should reach 1×10^5). […] After 10 minutes incubation at room temperature, the reaction mixture in 96-well plates was read by Glomax luminometer (Promega). Average values and standard deviation were obtained from four independent experiments.
(§3) Relative CellTiter values compared to untreated control cells at day 0 were plotted. […] In addition, OATL4 and KOB display 30% more reductions (see Table 2).
(§4) The CellTiter Assay was performed the same way as in Section 6.3, Example 3. Standard deviation was calculated from four experiments.

MOLT4 = experiment: CellTiter cell proliferation assay, MOLT4; conditions: MOLT-4; see Table 2
Text: as §1, §2, §3

[1] = test system: cell line 6 (ATL cell line); experiment: Lenalidomide sensitivity of cell types of Example 2, cell line 6
Text: (§5) Twenty-three types of cells from, e.g., ATL cell lines, lymphoma cell lines, leukemia cell lines, healthy peripheral blood mononuclear cells (PBMCs), and human T-lymphotropic virus 1 (HTLV-1) carrier's PBMCs are employed in this example.

NCI-H929 = experiment: CellTiter cell proliferation assay, NCI-H929 (multiple myeloma, responsive control); conditions: NCI-H929 multiple myeloma control cell line
Text: as §1, §2, §3

[2] = test system: cell line 12 (ATL cell line); experiment: Lenalidomide sensitivity of cell types of Example 2, cell line 12
Text: as §5

HuT78 = experiment: CellTiter cell proliferation assay, HuT78 (HTLV-1 negative T-cell line); conditions: 10 μM lenalidomide for three days
Text: as §1, §2
Relative CellTiter values compared to untreated control cells at day 0 were plotted. […]
as §4

[3] = test system: cell lines 1-4, 7, 10-11, and 13-23; experiment: Lenalidomide sensitivity of cell types of Example 2, other cell lines
Text: as §5

MT-4 = experiment: CellTiter cell proliferation assay, MT-4 (HTLV-1 transformed)
Text: as §1, §2, §3

[4] = test system: cell line 5 (ATL cell line); experiment: Lenalidomide sensitivity of cell types of Example 2, cell line 5
Text: as §5

OATL4 = experiment: CellTiter cell proliferation assay, OATL4 (ATL cell line); conditions: see Table 2
Text: as §1, §2, §3

KOB = experiment: CellTiter cell proliferation assay, KOB (ATL cell line); conditions: see Table 2
Text: as §1, §2, §3

RPMI-8226 = experiment: CellTiter cell proliferation assay, RPMI-8226 (multiple myeloma, irresponsive control); conditions: RPMI-8226 multiple myeloma control cell line
Text: as §1, §2, §3

[5] = Homo sapiens, HuT-102, read-out: remaining activities (cell proliferation activity)

Nc1cccc2c1CN(C1CCC(=O)NC1=O)C2=O (centres unmarked) [lenalidomide, 1-oxo-2-(2,6-dioxopiperidin-3-yl)-4-aminoisoindoline]
activity at 0.1 µM (Hut102; [5]): 64.2%
activity at 1 µM (Hut102; [5]): 68.3%
activity at 10 µM (Hut102; [5]): 46%
activity at 100 µM (Hut102; [5]): 53%
time-dependent cell growth (remaining growth activities, FIG. 4) (Hut102; HuT102, 10 μM lenalidomide for three days): significant decrease in cell growth
growth inhibition (MOLT4): 30%
sensitivity to lenalidomide [1]: weak/moderate-sensitive
response against lenalidomide treatment (FIG. 3) (NCI-H929): sensitive
sensitivity to lenalidomide [2]: weak/moderate-sensitive
time-dependent cell growth (remaining growth activities, FIG. 4) (HuT78): almost unchanged
sensitivity to lenalidomide [3]: intense tolerance
sensitivity to lenalidomide (MT-4): moderate sensitive
sensitivity to lenalidomide [4]: highly-sensitive
reductions of cell proliferation activity (OATL4): ≥ 30%
growth inhibition (KOB): 30%
reductions of cell proliferation activity (KOB): ≥ 30%
response against lenalidomide treatment (FIG. 3) (RPMI-8226): insensitive
